Test results published in US20040072825A1, “2-(2-(4-((2r)-2-methyl-3-(10h-phenothiazin-10-yl)propyl)-1-piperazinyl)-ethoxy) ethanol, process for the preparation thereof, pharmaceutical compositions containing said compound and therapeutic uses thereof” (priority 2000, published 2004).
Entries after “also recorded” stand apart in the source; their conditions may differ. Marks after values point to notes of the source that are not given here.

Experiments:
[1] = biological target: human H1 histaminic receptor (Homo sapiens, UniProt P35367); assay: Radioligand binding, human H1 receptor (CHO cell culture)
Experimental: (§1) The test substances, biological materials and experimental protocols used in the study are described in Moguilevsky N. et al. (1994) Eur. J. […] List S. J. (1981) Proc. Natl. Acad. Sci.78:2620-2624; MacKenzie R. G. et al. (1994) Eur. J. Pharmacol. 266:79-85; Van Tol et al., (1992) Nature, 358:149-152. […] Filtermat A, Walac), then washed with cold buffer using a filtration unit ‘Cell Harvester’ (Brandel, Packard or Tomtec). The bound radioactivity is measured using a scintillation liquid (Formula 989 or Microscint 0, Packard) or solid (Meltilex B/HS, Wallac), and a scintillation counter (LS 6000, Beckman; Topcount, Packard; Betaplate, Wallac). […] Each experiment was performed in duplicate (n=2). In parallel, a positive control (concentration of reference substance causing 50% inhibition of radioligand specific binding) is tested to validate the assay. For competition experiments, membranes are incubated in the buffer containing the radioligand and increasing concentrations of unlabeled test substances. Each binding assay is validated with a reference compound tested in parallel. […] where BO and BI represent the total binding in the absence and presence of the unlabelled drug (in dpm/assay) and NSB is the amount of non specific binding (in dpm/assay). Analysis of raw data and pIC50 calculation is performed by computerized non-linear curve fitting methods using a set of equations describing competitive interactions between labelled and unlabeled ligands which obey the law of mass action. IC50 represents the concentration of the test substance inhibiting 50% of the specific binding of the radioligand. It is determined in competitive binding experiments by measuring the binding of a single concentration of a radioactive ligand at equilibrium with various concentrations of the unlabeled test substance. pIC50=−log IC50

D2 dopaminergic receptor = D2 dopaminergic receptor (Rattus norvegicus, UniProt P61169); assay: Radioligand binding, D2 receptor (rat striatum membranes)
Experimental: as §1

[2] = tested on: vomiting induced by cisplatin in ferrets; assay: Cisplatin-induced emesis in ferrets, single oral administration; type: in vivo, ferret; conditions: for Proportion of animal vomiting: 60 min before cisplatin i.v., 5 h observation
Experimental: Cisplatin-induced emesis in ferrets is largely considered as the most suitable animal model for the study of drug activity against chemotherapy-induced vomiting in man (Georges L. King. Animal models in the study of vomiting. Can. J. Physiol. Pharmacol. 68, 260-268, 1988).
Three compounds, dixyrazine dihydrochloride and its (R) and (S) enantiomers were tested for their activity against vomiting induced by cisplatin in ferrets following single oral administration.
The study involved 14 groups of 8 male ferrets weighing between 0.93 kg and 1.45 kg purchased from the company MARSHALL FARMS (NEW YORK, U.S.). Groups were defined as follows: […]
group 1: control group dosed with the vehicle of test substances (sterile water),
group 2: method-control group dosed with a method-control substance, granisetron ([…], RBI®), at a dose of 0.3 mg/kg,
group 3 to 6: group dosed with diyyrazine dihydrochloride at 4 increasing doses of 7.5, 15, 30 and 60 mg/kg,
group 7 to 10: group dosed with the (R) enantiomer of dixyrazine dihydrochloride at 4 increasing doses of 7.5, 15, 30 and 60 mg/kg,
group 11 to 14: group dosed with the (S) enantiomer of drazine dihydrochloride at 4 increasing doses of 7.5, 15, 30 and 60 mg/kg.
On the day prior to the test, animals were fasted and allowed access only to water.
On the morning of the day of the study, free access to food was allowed for 30 minutes. Subsequently, animals were again put on to a water-only fast for 30 minutes before administration of the three compounds, the vehicle or the method-control substance which were administrated orally in a volume of 5 ml/kg.
Cisplatin was administrated by the intravenous route at a dose of 115 mg/m^2 and in a volume of 115 ml/m^2 (i.e. approximately at 10 mg/kg), 60 minutes after treatment. […] Emesis was characterised by abdominal contractions, which were associated with expulsion or attempted expulsion of stomach contents.
The time to onset of emesis was noted. The number of episodes of vomiting and the number of abdominal retches associated with episodes of emesis were also noted.

[3] = biological target: T1, 5-HT2 serotonergic receptor (Rattus norvegicus, UniProt P14842); assay: Radioligand binding, 5-HT2 receptor (rat cerebral cortex)
T1 construct: the rat cerebral cortex (5-HT2 receptor); from tissue; host or cells: rat cerebral cortex
Experimental: as §1

[4] = tested on: postoperative nausea and vomiting; conditions: prophylactic administration, analgesia with morphine; cited from earlier work
[5] = biological target: T2, D4.4 dopaminergic receptor (Homo sapiens, UniProt P21917); assay: Radioligand binding, D4.4 receptor (CHO cell culture)
T2 construct: expressed in transfected cells; host or cells: CHO
T2 sequence (P21917 1-419): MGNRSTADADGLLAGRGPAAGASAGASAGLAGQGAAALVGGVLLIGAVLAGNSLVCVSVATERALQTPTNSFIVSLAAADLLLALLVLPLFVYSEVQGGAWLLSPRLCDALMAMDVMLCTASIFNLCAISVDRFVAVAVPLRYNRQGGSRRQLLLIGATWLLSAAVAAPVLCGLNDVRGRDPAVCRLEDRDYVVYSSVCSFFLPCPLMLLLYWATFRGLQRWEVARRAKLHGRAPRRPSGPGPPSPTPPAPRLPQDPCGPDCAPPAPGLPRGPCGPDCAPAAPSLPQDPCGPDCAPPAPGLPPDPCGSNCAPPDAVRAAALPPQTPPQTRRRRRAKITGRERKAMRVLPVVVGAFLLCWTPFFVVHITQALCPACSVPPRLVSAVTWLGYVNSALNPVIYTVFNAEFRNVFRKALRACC
Experimental: as §1

[6] = highest dose of 60 mg/kg p.o., 60 mg/kg

Sequence of D2 dopaminergic receptor (P61169 1-415 isoform P61169-2): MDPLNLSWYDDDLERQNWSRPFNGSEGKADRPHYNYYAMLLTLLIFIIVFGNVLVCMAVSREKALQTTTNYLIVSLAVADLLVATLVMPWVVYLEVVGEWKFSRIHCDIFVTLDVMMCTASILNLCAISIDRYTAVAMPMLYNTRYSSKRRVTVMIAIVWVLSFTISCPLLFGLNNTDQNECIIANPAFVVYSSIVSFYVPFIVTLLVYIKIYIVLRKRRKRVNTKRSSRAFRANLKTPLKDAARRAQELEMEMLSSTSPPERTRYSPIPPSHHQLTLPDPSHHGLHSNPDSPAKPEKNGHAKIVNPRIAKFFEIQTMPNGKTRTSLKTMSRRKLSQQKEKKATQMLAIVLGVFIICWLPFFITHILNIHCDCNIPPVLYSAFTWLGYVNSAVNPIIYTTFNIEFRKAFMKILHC
T1 sequence (P14842 whole entry): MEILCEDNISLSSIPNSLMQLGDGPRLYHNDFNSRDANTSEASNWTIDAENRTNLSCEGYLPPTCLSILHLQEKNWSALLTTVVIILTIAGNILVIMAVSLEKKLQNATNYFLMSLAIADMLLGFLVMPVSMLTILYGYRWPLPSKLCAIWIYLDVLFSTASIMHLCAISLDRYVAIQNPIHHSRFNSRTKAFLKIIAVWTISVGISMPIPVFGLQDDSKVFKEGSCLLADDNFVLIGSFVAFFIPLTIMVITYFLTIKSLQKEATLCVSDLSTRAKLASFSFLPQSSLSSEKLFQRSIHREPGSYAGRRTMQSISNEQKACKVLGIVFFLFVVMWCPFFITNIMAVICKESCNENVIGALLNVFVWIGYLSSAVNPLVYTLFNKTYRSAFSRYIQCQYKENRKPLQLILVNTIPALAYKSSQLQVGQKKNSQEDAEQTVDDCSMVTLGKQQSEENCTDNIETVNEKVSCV
Sequence of human H1 histaminic receptor (P35367 whole entry): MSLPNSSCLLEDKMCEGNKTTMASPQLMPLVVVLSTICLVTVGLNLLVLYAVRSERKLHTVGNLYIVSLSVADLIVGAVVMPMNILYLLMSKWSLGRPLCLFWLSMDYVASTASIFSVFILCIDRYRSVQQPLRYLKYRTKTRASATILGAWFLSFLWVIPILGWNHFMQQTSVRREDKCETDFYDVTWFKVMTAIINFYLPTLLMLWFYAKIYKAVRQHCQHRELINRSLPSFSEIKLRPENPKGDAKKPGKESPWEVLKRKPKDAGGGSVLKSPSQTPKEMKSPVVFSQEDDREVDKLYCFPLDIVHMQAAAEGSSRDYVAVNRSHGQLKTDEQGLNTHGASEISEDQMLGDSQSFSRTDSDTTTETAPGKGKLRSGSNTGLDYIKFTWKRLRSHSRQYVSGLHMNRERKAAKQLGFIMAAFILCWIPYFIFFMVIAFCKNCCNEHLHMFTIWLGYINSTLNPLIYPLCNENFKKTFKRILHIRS

## CC(CN1CCN(CCOCCO)CC1)CN1c2ccccc2Sc2ccccc21 (racemic) [Dixyrazine, 2-(2-(4-(2-methyl-3-(10H-phenothiazin-10-yl)propyl)-1-piperazinyl)ethoxy)ethanol, reference compound]
[1]; H1, 10 μM, mean of duplicate, 10 µM
  percent inhibition of control specific binding: 100%
[1]; H1, 10 μM, mean of duplicate, read-out: percent inhibition of control specific binding
  inhibition at 10 µM: > 90%
[1]; H1, competitive binding, read-out: Affinity pIC50 (-log IC50) (converted)
  IC50: 0.501 nM
D2 dopaminergic receptor; D2, 10 μM, mean of duplicate, 10 µM
  percent inhibition of control specific binding: 94%
D2 dopaminergic receptor; D2, 10 μM, mean of duplicate, read-out: percent inhibition of control specific binding
  inhibition at 10 µM: > 90%
D2 dopaminergic receptor; D2, competitive binding, read-out: Affinity pIC50 (-log IC50) (converted)
  IC50: 5.01 nM
[2]; 7.5 mg/kg p.o.
  Time to onset of emesis: 90 min
  Proportion of animal vomiting: 8/8
[2]; 15 mg/kg p.o.
  Time to onset of emesis: 76 min
  Proportion of animal vomiting: 5/8
[2]; 30 mg/kg p.o.
  Time to onset of emesis: 73 min
  Proportion of animal vomiting: 7/8
[2]; 60 mg/kg p.o.
  Time to onset of emesis: 81 min
  suppression of vomiting, number of animals: 5 animals out of 8
  Proportion of animal vomiting: 3/8*
[2]; [6]
  antiemetic effect (in words): induced an antiemetic effect
  effect on time to onset of emesis (in words): no effect; also recorded: did not alter this variable
[2]; highest dose of 60 mg/kg p.o., listed as dixyrazine dihydrochloride, 60 mg/kg
  antiemetic effect (in words): significantly reduce cisplatin-induced emesis
[3]; 5-HT2, 10 μM, mean of duplicate, 10 µM
  percent inhibition of control specific binding: 102%
[3]; 5-HT2, competitive binding, read-out: Affinity pIC50 (-log IC50) (converted)
  IC50: 6.31 nM
[3]; read-out: percent inhibition of control specific binding, 5-HT2, 10 μM, mean of duplicate
  inhibition at 10 µM: > 90%
[4]
  incidence and severity of vomiting (in words): reduces the incidence and severity of vomiting
[5]; D4.4, 0.1 μM, mean of duplicate, read-out: percent inhibition of control specific binding
  inhibition at 0.1 µM: 24%
[5]; D4.4, 10 μM, mean of duplicate, 10 µM
  percent inhibition of control specific binding: 104%
[5]; D4.4, 10 μM, mean of duplicate, read-out: percent inhibition of control specific binding
  inhibition at 10 µM: > 90%
[5]; D4.4, competitive binding, read-out: Affinity pIC50 (-log IC50) (converted)
  IC50: 398 nM
